{"source": "patent US7576108B2", "about": "“Substituted arylcyclopropylacetamides as glucokinase activators” (Eli Lilly and Company, priority 2003, dated 2009)"}
{"target": "T1, purified recombinant human islet GK (Homo sapiens, UniProt P35557)", "T1 construct": "(His)6; made in house; host or cells: E. coli", "T1 sequence (P35557 1-465)": "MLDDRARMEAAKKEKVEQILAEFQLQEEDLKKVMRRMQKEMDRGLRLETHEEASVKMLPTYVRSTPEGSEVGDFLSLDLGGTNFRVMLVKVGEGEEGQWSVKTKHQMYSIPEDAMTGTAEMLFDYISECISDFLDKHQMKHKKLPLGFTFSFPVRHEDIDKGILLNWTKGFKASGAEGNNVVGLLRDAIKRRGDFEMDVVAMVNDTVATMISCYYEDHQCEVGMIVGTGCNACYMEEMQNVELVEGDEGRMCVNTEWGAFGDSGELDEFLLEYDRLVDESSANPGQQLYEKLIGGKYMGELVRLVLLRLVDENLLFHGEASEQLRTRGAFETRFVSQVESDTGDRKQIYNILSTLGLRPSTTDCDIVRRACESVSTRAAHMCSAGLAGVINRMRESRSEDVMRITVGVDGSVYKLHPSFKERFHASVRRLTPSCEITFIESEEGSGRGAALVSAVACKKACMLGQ", "experiment": "Enzymatic coupled glucokinase (GK) assay (NADH production, absorbance at 340 nm)", "type": "biochemical", "settings": "concentration of activator that produced 50% of maximum increase in the activity of GK; at 10 mM glucose", "from_the_text": "An enzymatic coupled glucokinase (GK) assay using purified recombinant human islet GK was used to evaluate effects of the activators. In this assay, GK catalyzes glucose phosphorylation in the presence of ATP. The product of this reaction, glucose-6-phosphate, is then oxidized by an excess of glucose-6-dehydrogenase to produce gluconate-6-phosphate with concomitant reduction of NAD^+ to NADH (Davidson and Arion, 1987). The following outlines the two reactions involved: • Glucose+ATP→Glucose-6-P+ADP (Glucokinase) • Glucose-6-P+NAD→Gluconate-6-P+NADH (glucose-6-P dehydrogenase)\nThe NADH production detected by absorbance at 340 nm is used to monitor the enzymatic activity.\nThe human islet GK isoform was expressed in E. coli as (His)6-tagged fusion protein and purified with metal chelate affinity chromatography (Tiedge et al., 1997). After purification the enzyme was stored in aliquots at concentration 0.8 mg/ml in 25 mM NaH2PO4, 150 mM NaCl, 100 mM imidazole, 1 mM DTT, 50% glycerol at −80° C.\nThe assay was performed in flat bottom 96-well plates in a final incubation volume of 100 μl. The incubation mixture consisted of 25 mM HEPES (pH7.4), 50 mM KCl, 2.5 mM MgCl2, 2 mM dithiothreitol, 4 U/ml glucose-6-phosphate dehydrogenase from Leuconostoc mesenteroides, 5 mM ATP, 1 mM NAD and 10 mM glucose. All reagents were from Sigma-Aldrich Co. (St. Louis, Mo.). Test compounds were dissolved in DMSO and then added to the reaction mixture giving the final DMSO concentration of 10%.\nThe reaction was initiated by addition of 20 μl GK and run for 20 min at 37° C. The amount of formed NADH was measured as an increase in absorbance at 340 nm using a microplate reader.\nThe concentration of activator that produced 50% of maximum increase in the activity of GK (EC50) was calculated.", "units": {"EC50": "µM"}}
{"compound": "COc1ccc([C@@]2(C(=O)Nc3nccs3)C[C@H]2C2CCCCC2)cc1", "note": "(racemic) [Example 48, (±)-(E)-[2-Cyclohexyl-1-(4-methoxy-phenyl)-cyclopropanecarboxylic acid thiazol-2-ylamide]]", "EC50": 8.69}
{"compound": "COC(=O)c1ccc([C@@]2(C(=O)Nc3nccs3)C[C@H]2C2CCCC2)cc1", "note": "(racemic) [Example 73, (±)-(E)-4-[2-Cyclopentyl-1-(thiazol-2-ylcarbamoyl)-cyclopropyl]-benzoic acid methyl ester]", "EC50": 3.66}
{"compound": "CNC(=O)c1ccc([C@@]2(C(=O)Nc3nccs3)C[C@H]2C2CCCCC2)cc1", "note": "(racemic) [Example 50, (±)-(E)4-[2-Cyclohexyl-1-(thiazol-2-ylcarbamoyl)-cyclopropyl]-N-methyl-benzamide]", "EC50": 7.61}
{"compound": "CS(=O)(=O)c1ccc([C@@]2(C(=O)Nc3nccs3)C[C@H]2CC2CCCCC2)cc1", "note": "(racemic) [Example 2, (±)-(E)-2-Cyclohexylmethyl-1-(4-methanesulfonyl-phenyl)-cyclopropanecarboxylic acid thiazol-2-ylamide]", "EC50": 1.18}
{"compound": "Cc1cnc(NC(=O)[C@]2(c3ccc(S(C)(=O)=O)cc3)C[C@H]2C2CCCCC2)s1", "note": "(racemic) [Example 77, (±)-(E)-2-Cyclohexyl-1-(4-methanesulfonyl-phenyl)-cyclopropanecarboxylic acid (5-methyl-thiazol-2-yl)-amide]", "EC50": 0.39}
{"compound": "CC(=O)Nc1ccc([C@@]2(C(=O)Nc3nccs3)C[C@H]2C2CCCCC2)cc1", "note": "(racemic) [Example 51, (±)-(E)-1-(4-Acetylamino-phenyl)-2-cyclohexyl-cyclopropanecarboxylic acid thiazol-2-ylamide]", "EC50": 10.5}
{"compound": "CS(=O)(=O)c1ccc([C@@]2(C(=O)Nc3nccs3)C[C@H]2C2CCCCC2)cc1C(F)(F)F", "note": "(racemic) [Example 45, (±)-(E)-2-Cyclohexyl-1-(4-methanesulfonyl-3-trifluoromethyl-phenyl)-cyclopropanecarboxylic acid thiazol-2-ylamide]", "EC50": 0.16}
{"compound": "CS(=O)(=O)Nc1ccc([C@@]2(C(=O)Nc3nccs3)C[C@H]2C2CCCCC2)cc1", "note": "(racemic) [Example 52, (±)-(E)-2-Cyclohexyl-1-(4-methanesulfonylamino-phenyl)-cyclopropanecarboxylic acid thiazol-2-ylamide]", "EC50": 3.82}
{"compound": "CS(=O)(=O)c1ccc([C@@]2(C(=O)Nc3nccs3)C[C@H]2C2CCCCC2)cc1", "note": "(single isomer, unassigned) [55 (Isomer 1)]", "EC50": 0.15}
{"compound": "Cc1nnc(NC(=O)[C@]2(c3ccc(S(C)(=O)=O)cc3)C[C@H]2C2CCCC2)s1", "note": "(racemic) [Example 11, (±)-(E)-2-Cyclopentyl-1-(4-methanesulfonyl-phenyl)-cyclopropanecarboxylic acid (5-methyl-[1,3,4]thiadiazol-2-yl)-amide]", "EC50": 9.32}
{"compound": "CCN(CC)CCCS(=O)(=O)c1ccc([C@@]2(C(=O)Nc3nccs3)C[C@H]2C2CCCCC2)cc1", "note": "(racemic) [Example 7, (±)-(E)-2-Cyclohexyl-1-[4-(3-diethylamino-propane-1-sulfonyl)-phenyl]-cyclopropanecarboxylic acid thiazol-2-ylamide]", "EC50": 0.7}
{"compound": "CS(=O)(=O)c1ccc(C2(C(=O)Nc3nccs3)C(C3CCCCC3)C2(F)F)cc1", "note": "(single isomer, unassigned) [63 (Isomer 2), (±)-(E)-3-Cyclohexyl-2,2-difluoro-1-(4-methanesulfonyl-phenyl)-cyclopropanecarboxylic acid thiazol-2-ylamide]", "EC50": 5.3}
{"compound": "CS(=O)(=O)c1csc([C@@]2(C(=O)Nc3nccs3)C[C@H]2C2CCCC2)c1", "note": "(racemic) [Example 20, (±)-(Z)-2-Cyclopentyl-1-(4-methanesulfonyl-thiophen-2-yl)-cyclopropanecarboxylic acid thiazol-2-ylamide]", "EC50": 1.9}
{"compound": "CS(=O)(=O)c1cccc([C@@]2(C(=O)Nc3nccs3)C[C@H]2C2CCCCC2)c1", "note": "(racemic) [Example 35, (±)-(E)-2-Cyclohexyl-1-(3-methanesulfonyl-phenyl)-cyclopropanecarboxylic acid thiazol-2-ylamide]", "EC50": 7.61}
{"compound": "Cc1cc(NC(=O)[C@]2(c3ccc(S(C)(=O)=O)cc3)C[C@H]2C2CCCC2)no1", "note": "(racemic) [Example 13, (±)-(E)-2-Cyclopentyl-1-(4-methanesulfonyl-phenyl)-cyclopropanecarboxylic acid (5-methyl-isoxazol-3-yl)-amide]", "EC50": 12.7}
{"compound": "CC(C)C[C@@H]1C[C@]1(C(=O)Nc1nccs1)c1ccc(S(C)(=O)=O)cc1", "note": "(racemic) [Example 3, (±)-(E)-2-Isobutyl-1-(4-methanesulfonyl-phenyl)-cyclopropanecarboxylic acid thiazol-2-ylamide]", "EC50": 5.46}
{"compound": "O=C(Nc1nccs1)[C@]1(c2ccc(S(=O)(=O)NCCc3ccccn3)cc2)C[C@H]1C1CCCC1", "note": "(single isomer, unassigned) [Example 26, (E)-2-Cyclopentyl-1-[4-(2-pyridin-2-yl-ethylsulfamoyl)-phenyl]-cyclopropanecarboxylic acid thiazol-2-ylamide]", "EC50": 0.36}
